Assay results from patent publication US20230286970A1, “NOVEL OXADIAZOLE-BASED SELECTIVE HDAC6 INHIBITORS” (ITALFARMACO S.P.A., priority 2020, published 2023).

Legend:
recombinant human HDAC6 = recombinant human HDAC6 (Homo sapiens (Human), UniProt Q9UBN7); assay: Enzymatic screening, HDAC6 inhibition (fluorogenic FdL_G substrate); type: biochemical
In short: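 Enzyme was preincubated with compound (8 doses, triplicate, 1% DMSO) in 25 mM Tris-HCl pH 8, 130 mM NaCl, 0.05% Tween-20, 10% glycerol, with BSA. A FLUOR DE LYS-Green substrate was then added, and fluorescence was read after developer plus 2 μM TSA.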

recombinant human HDAC1 = recombinant human HDAC1 (Homo sapiens (Human), UniProt Q13547); assay: Enzymatic screening, HDAC1 inhibition (fluorogenic FdL_G substrate); type: biochemical
Sequence of recombinant human HDAC1 (Q13547 whole entry): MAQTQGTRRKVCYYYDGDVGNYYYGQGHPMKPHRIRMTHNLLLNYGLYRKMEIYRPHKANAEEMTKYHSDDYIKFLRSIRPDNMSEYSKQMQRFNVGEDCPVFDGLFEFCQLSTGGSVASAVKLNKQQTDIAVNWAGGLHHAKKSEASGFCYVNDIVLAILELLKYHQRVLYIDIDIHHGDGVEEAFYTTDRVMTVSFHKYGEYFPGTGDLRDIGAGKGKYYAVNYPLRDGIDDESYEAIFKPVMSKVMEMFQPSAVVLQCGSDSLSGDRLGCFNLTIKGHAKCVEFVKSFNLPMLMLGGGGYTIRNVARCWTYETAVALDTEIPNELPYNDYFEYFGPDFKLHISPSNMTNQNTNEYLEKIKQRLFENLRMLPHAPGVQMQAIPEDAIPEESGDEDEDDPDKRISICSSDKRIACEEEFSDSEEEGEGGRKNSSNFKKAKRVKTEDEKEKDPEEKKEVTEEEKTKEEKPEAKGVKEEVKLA
In short: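 Recombinant human HDAC1 inhibition was measured fluorometrically using the FLUOR DE LYS-Green (FdL_G) substrate. Compounds at 8 doses (1% DMSO final) in Tris-HCl pH 8 buffer with NaCl, Tween-20 and glycerol were preincubated in triplicate with enzyme and 1 mg/mL BSA, then given substrate. Developer I plus 2 μM TSA was added, and fluorescence read after 25 minutes in the dark.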

Sequence of recombinant human HDAC6 (Q9UBN7 whole entry): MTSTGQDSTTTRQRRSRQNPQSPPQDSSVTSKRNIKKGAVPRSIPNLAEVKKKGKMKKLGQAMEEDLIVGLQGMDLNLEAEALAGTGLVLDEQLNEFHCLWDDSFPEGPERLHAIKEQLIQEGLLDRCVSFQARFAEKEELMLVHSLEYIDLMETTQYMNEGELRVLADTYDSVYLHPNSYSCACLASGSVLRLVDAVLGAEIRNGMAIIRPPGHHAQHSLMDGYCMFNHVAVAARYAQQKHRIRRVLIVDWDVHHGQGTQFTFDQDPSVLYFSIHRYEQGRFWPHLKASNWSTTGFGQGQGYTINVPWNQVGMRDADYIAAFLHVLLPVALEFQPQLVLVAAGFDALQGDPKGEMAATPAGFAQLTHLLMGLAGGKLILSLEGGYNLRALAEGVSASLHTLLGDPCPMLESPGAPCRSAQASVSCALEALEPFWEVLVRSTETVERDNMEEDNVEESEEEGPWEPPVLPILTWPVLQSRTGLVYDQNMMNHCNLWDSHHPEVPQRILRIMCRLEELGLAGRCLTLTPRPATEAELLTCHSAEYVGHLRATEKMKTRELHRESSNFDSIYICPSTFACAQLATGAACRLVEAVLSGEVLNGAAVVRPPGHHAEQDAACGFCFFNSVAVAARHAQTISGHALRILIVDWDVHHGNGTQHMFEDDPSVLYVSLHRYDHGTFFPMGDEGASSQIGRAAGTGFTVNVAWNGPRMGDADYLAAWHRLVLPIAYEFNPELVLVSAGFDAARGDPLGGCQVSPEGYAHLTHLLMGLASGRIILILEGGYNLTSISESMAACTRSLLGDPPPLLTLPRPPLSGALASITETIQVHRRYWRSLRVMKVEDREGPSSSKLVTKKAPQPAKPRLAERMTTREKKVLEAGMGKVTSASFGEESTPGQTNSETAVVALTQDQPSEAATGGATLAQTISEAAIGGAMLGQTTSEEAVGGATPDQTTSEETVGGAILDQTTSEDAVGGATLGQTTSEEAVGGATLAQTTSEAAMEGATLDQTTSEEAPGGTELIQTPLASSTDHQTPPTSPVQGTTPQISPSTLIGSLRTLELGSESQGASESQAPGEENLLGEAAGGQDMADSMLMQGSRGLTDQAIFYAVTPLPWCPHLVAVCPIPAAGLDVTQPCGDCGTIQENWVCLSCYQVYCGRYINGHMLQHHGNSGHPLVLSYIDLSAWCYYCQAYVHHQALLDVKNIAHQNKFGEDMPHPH

Compound | IC50 (recombinant human HDAC6) | IC50 (recombinant human HDAC1)
FC(F)c1nnc(-c2ccc(Cn3nnc(-c4cncc5ccccc45)n3)cc2)o1 [compound 118, 2-(difluoromethyl)-5-(4-((5-(isoquinolin-4-yl)-2H-tetrazol-2-yl)methyl)phenyl)-1,3,4-oxadiazole] | 44 nM | > 200000 nM
O=C(NCC1CC1)C1CCCN(C(=O)c2ccc(-c3cn(Cc4c(F)cc(-c5nnc(C(F)F)o5)cc4F)nn3)cc2)C1 (centres unmarked) [compound 239, N-(cyclopropylmethyl)-1-(4-(1-(4-(5-(difluoromethyl)-1,3,4-oxadiazol-2-yl)-2,6-difluorobenzyl)-1H-1,2,3-triazol-4-yl)benzoyl)piperidine-3-carboxamide] | 215 nM | > 200000 nM
O=C1Nc2cc(-c3cn(Cc4ccc(-c5nnc(C(F)F)o5)cc4)nn3)ccc2NC12CCNCC2 [compound 277, 6′-(1-(4-(5-(difluoromethyl)-1,3,4-oxadiazol-2-yl)benzyl)-1H-1,2,3-triazol-4-yl)-1′,4′-dihydro-3′H-spiro[piperidine-4,2′-quinoxalin]-3′-one] | 72 nM | 166000 nM
CN(C)C(=O)Nc1cc(-c2nnn(Cc3ccc(-c4nnc(C(F)F)o4)cc3)n2)ccc1O [compound 31, 3-(5-(2-(4-(5-(difluoromethyl)-1,3,4-oxadiazol-2-yl)benzyl)-2H-tetrazol-5-yl)-2-hydroxyphenyl)-1,1-dimethylurea] | 14 nM | > 200000 nM
Nc1nc2cc(-c3cn(Cc4ccc(-c5nnc(C(F)F)o5)cc4)nn3)ccc2s1 [compound 132, 5-(1-(4-(5-(difluoromethyl)-1,3,4-oxadiazol-2-yl)benzyl)-1H-1,2,3-triazol-4-yl)benzo[d]thiazol-2-amine] | 51 nM | > 200000 nM
O=C(Nc1cccc(-c2cn(Cc3ccc(-c4nnc(C(F)F)o4)cc3)cn2)c1)N1CCOCC1 [compd. 267, N-(3-(1-(4-(5-(difluoromethyl)-1,3,4-oxadiazol-2-yl)benzyl)-1H-imidazol-4-yl)phenyl)morpholine-4-carboxamide] | 85 nM | > 200000 nM
FC(F)c1nnc(-c2ccc(Cc3nc(-c4ccc(NC5=NCCN5)cc4)no3)cc2)o1 [compound 379, N-[4-[5-[[4-[5-(difluoromethyl)-1,3,4-oxadiazol-2-yl]phenyl]methyl]-1,2,4-oxadiazol-3-yl]phenyl]-4,5-dihydro-1H-imidazol-2-amine] | 17 nM | > 1e+06 nM
Cn1c(N)nc2cc(-c3cn(Cc4ccc(-c5nnc(C(F)F)o5)c(F)c4F)nn3)ccc21 [compound 345, 5-[1-[[4-[5-(difluoromethyl)-1,3,4-oxadiazol-2-yl]-2,3-difluorophenyl]methyl]triazol-4-yl]-1-methylbenzimidazol-2-amine] | 24 nM | 168000 nM
FC(F)c1nnc(-c2ccc(Cn3cc(-c4ccc5nc(Cl)[nH]c5c4)nn3)cc2)o1 [compound 136, 2-(4-((4-(2-chloro-1H-benzo[d]imidazol-6-yl)-1H-1,2,3-triazol-1-yl)methyl)phenyl)-5-(difluoromethyl)-1,3,4-oxadiazole] | 53 nM | > 200000 nM
FC(F)c1nnc(-c2ccc(Cc3cn(-c4ccc(NC5=NCCN5)cc4)nn3)cc2)o1 [compound 316, N-(4-(4-(4-(5-(difluoromethyl)-1,3,4-oxadiazol-2-yl)benzyl)-1H-1,2,3-triazol-1-yl)phenyl)-4,5-dihydro-1H-imidazol-2-amine] | 56 nM | > 1e+06 nM
Cc1ncccc1-c1cn(Cc2ccc(-c3nnc(C(F)F)o3)cn2)nn1 [compound 115, 2-(difluoromethyl)-5-(6-((4-(2-methylpyridin-3-yl)-1H-1,2,3-triazol-1-yl)methyl)pyridin-3-yl)-1,3,4-oxadiazole] | 43 nM | > 200000 nM
Nc1nc2ccc(-n3cc(Cc4ccc(-c5nnc(C(F)F)o5)cc4)nn3)cc2s1 [compd. 377, 6-[4-[[4-[5-(difluoromethyl)-1,3,4-oxadiazol-2-yl]phenyl]methyl]triazol-1-yl]-1,3-benzothiazol-2-amine] | 370 nM | > 1e+06 nM
FC(F)c1nnc(-c2ccc(Cn3nnc(-c4cccc(-c5nc6c([nH]5)CCNC6)c4)n3)nc2)o1 [compound 276, 2-(difluoromethyl)-5-(6-((5-(3-(4,5,6,7-tetrahydro-1H-imidazo[4,5-c]pyridin-2-yl)phenyl)-2H-tetrazol-2-yl)methyl)pyridin-3-yl)-1,3,4-oxadiazole] | 9 nM | 165000 nM
CNc1ccc(-c2nnn(Cc3ccc(-c4nnc(C(F)F)o4)cc3)n2)cc1N [compound 164, 4-(2-(4-(5-(difluoromethyl)-1,3,4-oxadiazol-2-yl)benzyl)-2H-tetrazol-5-yl)-N-1-methylbenzene-1,2-diamine] | 77 nM | > 200000 nM
NCC(=O)Nc1cccc(-c2cn(Cc3c(F)cc(-c4nnc(C(F)F)o4)cc3F)nn2)c1 [Compd. 144, 2-amino-N-(3-(1-(4-(5-(difluoromethyl)-1,3,4-oxadiazol-2-yl)-2,6-difluorobenzyl)-1H-1,2,3-triazol-4-yl)phenyl)acetamide] | 60 nM | > 200000 nM
Nc1nccc2cc(-c3nnn(Cc4cc(F)c(-c5nnc(C(F)F)o5)cc4F)n3)ccc12 [compound 396, 6-[2-[[4-[5-(difluoromethyl)-1,3,4-oxadiazol-2-yl]-2,5-difluorophenyl]methyl]tetrazol-5-yl]isoquinolin-1-amine] | 60 nM | 1e+06 nM
O=C(Nc1ccc(-c2nnn(Cc3ncc(-c4nnc(C(F)F)o4)cn3)n2)cn1)C(F)F [compound 68, N-(5-(2-((5-(5-(difluoromethyl)-1,3,4-oxadiazol-2-yl)pyrimidin-2-yl)methyl)-2H-tetrazol-5-yl)pyridin-2-yl)-2,2-difluoroacetamide] | 33 nM | > 200000 nM

Further compounds by falling IC50 (recombinant human HDAC6), results first:

IC50 (recombinant human HDAC6) | IC50 (recombinant human HDAC1) | Compound
254 nM | > 200000 nM | CC(C)(C)OC(=O)N1CCC2(CC1)Nc1cc(-c3cn(Cc4ccc(-c5nnc(C(F)F)o5)cc4)nn3)ccc1NC2=O [compound 268, tert-butyl 7′-(1-(4-(5-(difluoromethyl)-1,3,4-oxadiazol-2-yl)benzyl)-1H-1,2,3-triazol-4-yl)-3′-oxo-3′,4′-dihydro-1′H-spiro[piperidine-4,2′-quinoxaline]-1-carboxylate]
210 nM | > 200000 nM | CN1CC(=O)Nc2cc(-c3cn(Cc4c(F)cc(-c5nnc(C(F)F)o5)cc4F)nn3)ccc2C1 [Compd. 237, 8-(1-(4-(5-(difluoromethyl)-1,3,4-oxadiazol-2-yl)-2,6-difluorobenzyl)-1H-1,2,3-triazol-4-yl)-4-methyl-1,3,4,5-tetrahydro-2H-benzo[e][1,4]diazepin-2-one]
187 nM | > 200000 nM | O=C(c1ccc(-c2nnn(Cc3ccc(-c4nnc(C(F)F)o4)cc3)n2)cc1)N1CCOCC1 [compound 230, (4-(2-(4-(5-(difluoromethyl)-1,3,4-oxadiazol-2-yl)benzyl)-2H-tetrazol-5-yl)phenyl)(morpholino)methanone]
150 nM | > 200000 nM | CN1CCN(c2ccc(-c3nnn(Cc4ccc(-c5nnc(C(F)F)o5)cc4)n3)cc2)CC1 [compound 213, 2-(difluoromethyl)-5-(4-((5-(4-(4-methylpiperazin-1-yl)phenyl)-2H-tetrazol-2-yl)methyl)phenyl)-1,3,4-oxadiazole]
85 nM | 1e+06 nM | Nc1cc2cc(-c3cn(Cc4cc(F)c(-c5nnc(C(F)F)o5)cc4F)nn3)ccc2cn1 [compound 406, 6-[1-({4-[5-(difluoromethyl)-1,3,4-oxadiazol-2-yl]-2,5-difluorophenyl}methyl)-1H-1,2,3-triazol-4-yl]isoquinolin-3-amine]
61 nM | > 200000 nM | O=C(Nc1cccc(-c2nc(Cc3c(F)cc(-c4nnc(C(F)F)o4)cc3F)no2)c1)N1CCOCC1 [Compd. 145, N-(3-(3-(4-(5-(difluoromethyl)-1,3,4-oxadiazol-2-yl)-2,6-difluorobenzyl)-1,2,4-oxadiazol-5-yl)phenyl)morpholine-4-carboxamide]
60 nM | > 1e+06 nM | [2H]C([2H])(c1ccc(-c2nnc(C(F)F)o2)cc1)n1cc(-c2cccc(NC(=O)N3CCOCC3)c2)nn1 [compound 352, N-[3-[1-[dideuterio-[4-[5-(difluoromethyl)-1,3,4-oxadiazol-2-yl]phenyl]methyl]triazol-4-yl]phenyl]morpholine-4-carboxamide]
32 nM | > 200000 nM | Nc1ccc(-c2cn(C(CCNC(=O)C(F)F)c3ccc(-c4nnc(C(F)F)o4)cn3)nn2)cn1 (centres unmarked) [compd. 295, N-(3-(4-(6-aminopyridin-3-yl)-1H-1,2,3-triazol-1-yl)-3-(5-(5-(difluoromethyl)-1,3,4-oxadiazol-2-yl)pyridin-2-yl)propyl)-2,2-difluoroacetamide]
21 nM | > 1e+06 nM | [2H]C([2H])(c1ccc(-c2nnc(C(F)F)o2)cc1)n1cc(-c2ccc3nc(N)sc3c2)nn1 [compound 351, 6-[1-[dideuterio-[4-[5-(difluoromethyl)-1,3,4-oxadiazol-2-yl]phenyl]methyl]triazol-4-yl]-1,3-benzothiazol-2-amine]
19 nM | > 200000 nM | Nc1ccc(-c2cn(Cc3c(F)cc(-c4nnc(C(F)F)o4)cc3F)nn2)cn1 [compound 42, 5-(1-(4-(5-(difluoromethyl)-1,3,4-oxadiazol-2-yl)-2,6-difluorobenzyl)-1H-1,2,3-triazol-4-yl)pyridin-2-amine]
15 nM | > 1e+06 nM | Nc1nc2cc(-c3cn(Cc4ccc(-c5nnc(C(F)F)o5)cn4)cn3)ccc2o1 [compound 308, 5-(1-((5-(5-(difluoromethyl)-1,3,4-oxadiazol-2-yl)pyridin-2-yl)methyl)-1H-imidazol-4-yl)benzo[d]oxazol-2-amine]
